These are literature values, as cited in patent publication US20260117185A1, “ENHANCEMENT OF FIBROBLAST PLASTICITY FOR TREATMENT OF DISC DEGENERATION” (SPINALCYTE, LLC, priority 2018, published 2026).

For series [1], the system named is in vitro pre-mature senescence model. Conditions: valproic acid treatment.
For a further series, the system named is mesenchymal stem cells. Conditions: culture of cells with valproic acid.
The mark [2] stands for this setting: through the suppression of the p16/p21 pathway.

For `CCCC(CCC)C(=O)O` [valproic acid], in series [1], the “G2/M phase blockage derived from the senescence stress” value is listed as “inhibited the G2/M phase blockage”. Further, in series [1] (setting [2]), the apoptosis entry was “inhibited apoptosis” and the cell proliferation result is on record as “increased cell proliferation”. Further, in the series with mesenchymal stem cells, the “immune regulatory and metabolic properties of mesenchymal stem cells” value was “enhanced immune regulatory and metabolic properties”.
